According to patent publication US11325937B2, “Glycoside compound and preparation method therefor, composition, application, and intermediate” (SHANGHAI HUTCHISON PHARMACEUTICALS LIMITED, priority 2018, dated 2022):

Tested on: VEGF-A mRNA
Test: Sponge implanted animal model of inflammatory angiogenesis: VEGF-A mRNA expression
Type: in vivo, male C57/BL6 mice
Conditions: 2 weeks; for activity in promoting VEGF-A mRNA expression compared with Salvianolate (in words): positive control Salvianolate 60 mg/kg/d, sponge implanted mice
Text: The target pro-angiogenic compounds TG-052, TG-053, TG-054, TG-028, and TG-055 obtained in Effect Example 1 that perform well at the cellular level were further screened for the active molecules that promote VEGF-A mRNA expression in the “sponge implanted animal model” of inflammatory angiogenesis. […] This model can well reflect the expression of VEGF-A mRNA in macrophages recruited around inflammation.
A sponge implanted mouse model was established following the method as described in Zhang J, Modi Y, and Yarovinsky T, et al. Macrophage β2 integrin-mediated, HuR-dependent stabilization of angiogenic factor-encoding mRNAs in inflammatory angiogenesis. [J]. American Journal of Pathology, 2012. 180(4): 1751-1760. The mice used in the present invention was male C57/BL6 mice aged 6-8 weeks and weighing 20-25 g, purchased from Shanghai SLAC Laboratory Animal Co., Ltd, Production License No: SCXK (Shanghai) 2013-0016. The compound screened in Effect Example 1 was weighed according to the amount intended to be used in two weeks, and then mixed with a gel matrix and a solvent to prepare a sustained-release gel of the compound (see Patent Application No.: CN201610168493.9 for the details of the preparation method of the sustained-release gel and the model establishment and detection methods). The specific steps were as follows. A certain amount of the compound obtained in Effect Example 1 was weighed into a 1.5 mL EP tube, and then a certain amount of poly-L-lactic acid (PLLA) with a weight average molecular weight of less than 10,000 was weighed and mixed with the compound (at a weight ratio of the compound to PLLA of 0.5:1 to 2:1). Finally a certain amount of DMSO (less than 100 microliters) was added, spun, mixed well, and then sealed with a sealing film. After continuous ultrasonication at 200 W and 25° C. for 5 h, a sustained-release gel of the compound was obtained, which was stored at 4° C. for later use.
The prepared sustained-release gel can release the drug completely within 2 weeks. The sustained-release gel and sponge were both subcutaneously implanted in the mice at the back. After 2 weeks, the sponge was taken out, and the residual tissue and fur were removed. The sponge was transferred to a cell culture plate containing 10 mL of DMEM medium containing collagenase (Collagenase:DMEM=10 mg/10 mL), cut, and incubated for 1 h in a cell incubator. Then the culture medium containing sponge debris was filtered, and the resulting filtrate was centrifuged. The supernatant was discarded, and 500 μL of Trizol reagent was added to the pellet, and mixed uniformly by blowing. Then the liquid was transferred to a 1.5 mL EP tube, and stored at −80° C. RNA was extracted according to a conventional method, and the RNA concentration was determined using a microvolume nucleic acid and protein analyzer (Nanodrop2000c). The required volume V of RNA was calculated according to the RNA concentration, and the RNA reverse transcription reaction system was prepared according to Table 1. Then RNA reverse transcription (cDNA synthesis) was carried out according to the conditions described in Table 2. The resulting cDNA was used to prepare a fluorescence quantitative qPCR reaction solution according to Table 3. The fluorescence quantitative qPCR reaction conditions were set according to Table 4, and the fluorescence quantitative PCR reaction was performed using cDNA from the reverse transcription reaction as a template. The relative expression level 2^−ΔΔCt of the target gene was calculated from the Ct value of each sample with the blank group as a control and β-Actin as an internal reference. The expression level of VEGF-A mRNA in the cells extracted from the sponge was observed after 2 weeks. […]

SMILES	VEGF-A mRNA expression level relative to blank control without drugs (11.74 mg/kg/d, sustained-release gel, mice)	VEGF-A mRNA expression level relative to blank control without drugs (23.48 mg/kg/d, sustained-release gel, mice)	activity in promoting VEGF-A mRNA expression compared with Salvianolate (in words)	increase of expression level of VEGF-A mRNA compared with blank control without drugs (19.48 mg/kg/d, sustained-release gel, mice)
COc1ccc(CCCCO[C@@H]2O[C@H](CO)[C@@H](O)[C@H](O)[C@H]2O)cc1 [TG-028]	more than 6 times	more than 6 times	significantly higher than that of Salvianolate	
OC[C@H]1O[C@@H](OCCc2ccccc2)[C@H](O)[C@@H](O)[C@@H]1O [TG-055]			comparable to that of Salvianolate	about 3 times
